The target of the experiment is T1, human P2X7 (Homo sapiens, UniProt Q99572).
T1 construct: 1321N1 cells stably expressing the full length human P2X7 gene (1321N1-hP2X7)
T1 sequence (Q99572 1-595): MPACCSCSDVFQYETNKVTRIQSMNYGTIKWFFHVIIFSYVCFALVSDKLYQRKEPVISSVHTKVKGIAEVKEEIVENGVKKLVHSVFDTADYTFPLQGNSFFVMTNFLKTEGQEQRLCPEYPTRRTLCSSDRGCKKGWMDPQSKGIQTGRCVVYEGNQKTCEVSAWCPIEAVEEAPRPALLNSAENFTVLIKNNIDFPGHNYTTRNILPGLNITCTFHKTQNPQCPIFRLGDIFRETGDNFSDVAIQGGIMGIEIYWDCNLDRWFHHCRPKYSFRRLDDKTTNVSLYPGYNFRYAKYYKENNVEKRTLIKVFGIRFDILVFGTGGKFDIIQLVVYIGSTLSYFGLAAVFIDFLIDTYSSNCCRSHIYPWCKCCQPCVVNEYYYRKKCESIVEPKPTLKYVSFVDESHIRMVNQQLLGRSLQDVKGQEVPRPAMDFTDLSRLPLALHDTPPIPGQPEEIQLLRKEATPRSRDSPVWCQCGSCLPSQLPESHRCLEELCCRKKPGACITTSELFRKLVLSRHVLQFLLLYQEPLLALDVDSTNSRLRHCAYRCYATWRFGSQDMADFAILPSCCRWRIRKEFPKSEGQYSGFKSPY
As to the kind of experiment: P2X7 modulator pIC50 of Table 1 (assay not given; Intracellular Calcium Flux (FLIPR) Assay assumed). Type of experiment: cell-based. In outline: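 1321N1 cells expressing human P2X7, fluo-3 loaded, pre-equilibrated 20 min at RT with antagonist; 100 μM BzATP agonist added and calcium fluorescence recorded 5 min on FLIPR. BzATP-evoked maximum normalised to 5 μM ionomycin response. HEK293 rat P2X7 cells used 5 μM BzATP.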
(A change in cytosolic calcium serves as a functional read-out for many receptors and channels.)

With `Cc1cc(Cl)c(-n2cccc(C)c2=O)cc1NC(=O)C1=CN(C)C(=O)N[C@H]1c1ccc(F)cc1` [Compound 66, (S)-4-(4-Fluoro-phenyl)-1-methyl-2-oxo-1,2,3,4-tetrahydro-pyrimidine-5-carboxylic acid [4-chloro-2-methyl-5-(3-methyl-2-oxo-2H-pyridin-1-yl)-phenyl]-amide], the IC50 is 19.5 nM.

Take `Cc1ccc(-n2ccc(=O)n(C)c2=O)cc1NC(=O)C1=CN(C)C(=O)N[C@H]1c1ccc(F)cc1` [Compound 68, (S)-4-(4-Fluoro-phenyl)-1-methyl-2-oxo-1,2,3,4-tetrahydro-pyrimidine-5-carboxylic acid [2-methyl-5-(3-methyl-2,4-dioxo-3,4-dihydro-2H-pyrimidin-1-yl)-phenyl]-amide]: the IC50 is 37.6 nM.

Take `Cc1cc(F)c(-n2ncccc2=O)cc1NC(=O)C1=CN(C)C(=O)N[C@H]1c1ccc(F)cc1` [Compound 69, (S)-4-(4-Fluoro-phenyl)-1-methyl-2-oxo-1,2,3,4-tetrahydro-pyrimidine-5-carboxylic acid [4-fluoro-2-methyl-5-(6-oxo-6H-pyridazin-1-yl)-phenyl]-amide]: the IC50 was 19.3 nM.

For the compound `Cc1cc(F)c(-c2cccn(C)c2=O)cc1NC(=O)C1=CN(C)C(=O)N[C@H]1c1ccc(F)cc1` [Compound 70, (S)-4-(4-Fluoro-phenyl)-1-methyl-2-oxo-1,2,3,4-tetrahydro-pyrimidine-5-carboxylic acid [4-fluoro-2-methyl-5-(1-methyl-2-oxo-1,2-dihydro-pyridin-3-yl)-phenyl]-amide], the IC50 is 33.1 nM.

In the case of `Cc1ccc(=O)n(-c2ccc(C)c(NC(=O)C3=CN(C)C(=O)N[C@H]3c3ccc(F)cc3)c2)c1` [Compound 71, (S)-4-(4-Fluoro-phenyl)-1-methyl-2-oxo-1,2,3,4-tetrahydro-pyrimidine-5-carboxylic acid [2-methyl-5-(5-methyl-2-oxo-2H-pyridin-1-yl)-phenyl]-amide], the IC50 is 43.2 nM.

Turning to `CN1C=C(C(=O)Nc2cc(-c3ccnn(C)c3=O)ccc2F)[C@H](c2ccc(F)cc2)NC1=O` [Compound 72, (S)-4-(4-Fluoro-phenyl)-1-methyl-2-oxo-1,2,3,4-tetrahydro-pyrimidine-5-carboxylic acid [2-fluoro-5-(2-methyl-3-oxo-2,3-dihydro-pyridazin-4-yl)-phenyl]-amide], the IC50 is 15.7 nM.

On to `Cc1cnn(-c2cc(NC(=O)C3=CN(C)C(=O)N[C@H]3c3ccc(F)cc3)c(C)cc2F)c(=O)c1` [Compound 73, (S)-4-(4-Fluoro-phenyl)-1-methyl-2-oxo-1,2,3,4-tetrahydro-pyrimidine-5-carboxylic acid [4-fluoro-2-methyl-5-(4-methyl-6-oxo-6H-pyridazin-1-yl)-phenyl]-amide], for which the concentration for half-maximal inhibition (IC50) is 56.9 nM.

As for `CN1C=C(C(=O)Nc2cc(-n3ncccc3=O)ccc2F)[C@H](c2ccc(F)cc2)NC1=O` [Compound 74, (S)-4-(4-Fluoro-phenyl)-1-methyl-2-oxo-1,2,3,4-tetrahydro-pyrimidine-5-carboxylic acid [2-fluoro-5-(6-oxo-6H-pyridazin-1-yl)-phenyl]-amide], the IC50 is 101 nM.

By IC50 is commonly meant the midpoint of a concentration-inhibition curve.

These data come from patent publication US8435990B2, “Dihydropyrimidone amides as P2X7 modulators” (Roche Palo Alto LLC, priority 2009, dated 2013).
